# Experimental data: PubChem BioAssay AID2060887 (Molecular Pharmacology Branch, DTP, NCI, 2025)
# Tested on: 782815-120-R-J1-PDC complex spheroid viability
# Test: Anticancer human tumor 782815-120-R-J1-PDC patient-derived colon adenocarcinoma cell line growth inhibition [RAS]
# Details: for IC50: curve of first compound; for viability, T/C: stronger effect = lower value
# Source text: RAS pathway inhibitors in Combinations in Complex Spheroids
# A high-throughput screen of multi-cell type tumor spheroids was designed to identify active combinations of RAS pathway inhibitors and targeted small molecules. Complex spheroids include a stromal component modeled by human endothelial cells (HUVEC) and fibroblasts modeled by human mesenchymal stem cells (MSCs). The concentration ranges selected for each drug and investigational agent were based upon clinically achievable concentrations if the clinical Cmax of the agent was known.
# Compounds. The drugs and investigational agents: abemaciclib (NSC768073), cobimetinib (NSC768068), divarasib (GDC6063, NSC841802), docetaxel (NSC628503), GDC-1971 (RLY-1971, NSC841576), gemcitabine (NSC613327), inavolisib (NSC800729), ipatasertib (NSC767898), KB-0742 (NSC834161), MRTX-1133 (NSC836407), osimertinib (NSC779217), RMC-4630 (NSC839698), RMC-6236 (NSC851965), RMC-6291 (NSC852671), Ro-3306 (NSC812927), sapanisertib (NSC764658), SN-38 (NSC673596), staurosporine (NSC755774), SY5609 (NSC837396), and tovorafenib (DAY101, NSC766906), were obtained from the National Cancer Institute (NCI) Developmental Therapeutics Program Chemical Repository. The FDA-approved anticancer drug set is available from the NCI Developmental Therapeutics Program. […] The stock solutions were prepared in dimethyl sulfoxide (DMSO, Sigma-Aldrich, St. Louis, MO, cat. D2650) at 800-fold the tested concentration and stored at -70 degrees C prior to their use. All drugs and investigational agents were tested over a range starting from a high concentration at or near the clinical Cmax and decreasing in half-log increments. If the clinical Cmax for an agent had not been determined, the highest concentration tested was 10 microM.
# Cell Culture. All cells were maintained in an incubator at 37 degrees C and 5% CO2 with 95% humidity. The PDC lines were cultured according to standard operating procedures established by the NCI PDMR. All PDCs were thawed and cultured in Matrigel-coated flasks prepared with a working solution of 1X Ham's F-12 nutrient mix, without supplementation (Invitrogen, Waltham, MA, cat. 11765054), 100 U/mL penicillin-streptomycin (Invitrogen, cat. 15140122), and 2.5% Matrigel (Corning Inc., Corning, NY, cat. 354248) for the first three passages. The 362531-283-R-J2-PDC and 782815-120-R-J1-PDC lines were cultured in 6C/Colon 1B media, which includes advanced DMEM/F-12 (Thermo Fisher Scientific, cat. 12634028), 10 mM HEPES (Thermo Fisher Scientific, cat. 15630080), 1X GlutaMAX supplement (Thermo Fisher Scientific, cat. 35050061), 0.1 mg/mL primocin (InvivoGen, San Diego, CA, cat. ant-pm-2), 10% defined fetal bovine serum, heat inactivated (HyClone Laboratories Inc., Logan, UT, cat. SH30070.03HI), 50% L-WRN conditioned media (ATCC, cat. CRL-3276), 1.25 mM N-Acetyl-L-cysteine (Sigma-Aldrich, cat. A9165), 10 mM nicotinamide (Sigma-Aldrich, cat. N0636), 1X B-27 supplement (Thermo Fisher Scientific, cat. 17504044), 1X N-2 supplement (Thermo Fisher Scientific, cat. 17502048), 50 ng/mL human EGF (Thermo Fisher Scientific, cat. PHG0311), and 10 microM Y-27632 dihydrochloride (Tocris Bioscience, cat. 1254). The K12877-001-R-J1-PDC line was cultured in 6I media, which includes all 6C/Colon 1B media plus 10 ng/mL human FGF-10 (PeproTech, cat. 100-26), 1 ng/mL human FGF-2 (PeproTech, cat. 100-18B), 1 µM prostaglandin E2 (Tocris Bioscience, cat. 2296), […] hydrocortisone (Sigma-Aldrich, cat. H4001), and […] bovine insulin (Sigma-Aldrich, cat. I6634). The K86415-001-R-J1-PDC line was cultured in 6D media, which includes all 6C/Colon 1B media components minus the L-WRN conditioned media. The 485176-168-R4-J1-PDC was cultured in PANC media, which includes all 6C/Colon 1B media plus 100 ng/mL human FGF-10 (PeproTech, cat. 100-26), 500 nM SB-431542 (Selleckchem, cat. S1067), and 10 nM gastrin (Tocris Bioscience, cat. 3006). […]
# 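Note: spheroids exposed to compounds for 7 days before reading.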
# 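Throughout, for viability, T/C: 100% = DMSO vehicle control viability.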
smiles,measurement,setting,value
CC1(O)CCCC1n1c(=O)c(C(F)F)cc2cnc(NC3CCN(S(C)(=O)=O)CC3)nc21 (configuration not stated) + C#Cc1c(F)ccc2cc(O)cc(-c3ncc4c(N5CC6CCC(C5)N6)nc(OCC56CCCN5CC(F)C6)nc4c3F)c12,IC50,second compound 0.0316 µM,6.05 µM
same,IC50,second compound 0.1 µM,4.76 µM
same,IC50,second compound 0.316 µM,5.35 µM
same,IC50,second compound 1 µM,5.29 µM
same,IC50,second compound 3.16 µM,5.79 µM
same,IC50,second compound 10 µM,4.9 µM
same,"viability, T/C","second compound 0.0316 µM, first compound 0.0316 µM",73.7%
same,"viability, T/C","second compound 0.0316 µM, first compound 0.1 µM",74.5%
same,"viability, T/C","second compound 0.0316 µM, first compound 0.316 µM",65.7%
same,"viability, T/C","second compound 0.0316 µM, first compound 1 µM",76%
same,"viability, T/C","second compound 0.0316 µM, first compound 3.16 µM",68.8%
same,"viability, T/C","second compound 0.0316 µM, first compound 10 µM",35.1%
same,"viability, T/C","second compound 0.1 µM, first compound 0.0316 µM",83.1%
same,"viability, T/C","second compound 0.1 µM, first compound 0.1 µM",75.2%
same,"viability, T/C","second compound 0.1 µM, first compound 0.316 µM",68.8%
same,"viability, T/C","second compound 0.1 µM, first compound 1 µM",62.8%
same,"viability, T/C","second compound 0.1 µM, first compound 3.16 µM",66.4%
same,"viability, T/C","second compound 0.1 µM, first compound 10 µM",32.6%
same,"viability, T/C","second compound 0.316 µM, first compound 0.0316 µM",78.6%
same,"viability, T/C","second compound 0.316 µM, first compound 0.1 µM",79.7%
same,"viability, T/C","second compound 0.316 µM, first compound 0.316 µM",69.2%
same,"viability, T/C","second compound 0.316 µM, first compound 1 µM",69.2%
same,"viability, T/C","second compound 0.316 µM, first compound 3.16 µM",65.6%
same,"viability, T/C","second compound 0.316 µM, first compound 10 µM",34.4%
same,"viability, T/C","second compound 1 µM, first compound 0.0316 µM",88.5%
same,"viability, T/C","second compound 1 µM, first compound 0.1 µM",77.7%
same,"viability, T/C","second compound 1 µM, first compound 0.316 µM",75.4%
same,"viability, T/C","second compound 1 µM, first compound 1 µM",69.5%
same,"viability, T/C","second compound 1 µM, first compound 3.16 µM",70.7%
same,"viability, T/C","second compound 1 µM, first compound 10 µM",28.6%
same,"viability, T/C","second compound 3.16 µM, first compound 0.0316 µM",77.5%
same,"viability, T/C","second compound 3.16 µM, first compound 0.1 µM",67.4%
same,"viability, T/C","second compound 3.16 µM, first compound 0.316 µM",68.7%
same,"viability, T/C","second compound 3.16 µM, first compound 1 µM",71%
same,"viability, T/C","second compound 3.16 µM, first compound 3.16 µM",79.1%
same,"viability, T/C","second compound 3.16 µM, first compound 10 µM",29.5%
same,"viability, T/C","second compound 10 µM, first compound 0.0316 µM",70.7%
same,"viability, T/C","second compound 10 µM, first compound 0.1 µM",65.8%
same,"viability, T/C","second compound 10 µM, first compound 0.316 µM",65.5%
same,"viability, T/C","second compound 10 µM, first compound 1 µM",67.3%
same,"viability, T/C","second compound 10 µM, first compound 3.16 µM",74.3%
same,"viability, T/C","second compound 10 µM, first compound 10 µM",19.5%
